{"source": "patent US10085937B2", "about": "“Nasal drug products and methods of their use” (Adapt Pharma Limited, priority 2014, dated 2018)", "key": {"[1]": {"experiment": "clinical", "details": "human, plasma; for AUC(0-t): AUC0-t; for AUC(0-t) / AUC(0-inf) / Cmax: geometric mean (CV %); for AUC(0-inf): AUC0-∞; for Tmax: Table 13"}, "[2]": {"test_system": "newborn rats", "details": "acute subcutaneous; cited from earlier work"}, "[3]": {"test_system": "mouse", "details": "intravenous; cited from earlier work"}, "[4]": {"experiment": "Safety of intranasal naloxone: adverse events, nasal irritation, vital signs, ECG (Study 2)"}, "[5]": {"experiment": "Safety of intranasal naloxone: nasal irritation, vital signs, ECG, clinical laboratory (Study 1)", "assay_type": "in vivo, human", "method": "These vital signs and temperature were also measured at screening, clinic intake, one day after each dosing session and at follow-up. […] AEs were recorded from the start of study-drug administration until clinic discharge. […] Clinical laboratory measurements were done prior to the first drug administration and on the day of clinic release.\nStatistical Analysis of Adverse Events: AEs were coded using the Medical Dictionary for Regulatory Activities (MedDRA), version 19. Preferred terms and are grouped by system, organ, class (SOC) designation. AEs are presented as a listing including the start date, stop date, severity, relationship, outcome, and duration."}, "[6]": {"test_system": "rat", "details": "intravenous; cited from earlier work"}, "[7]": {"details": "for Cmax/D: GLSM, dose adjustment to 0.4 mg; for λz / Frel: mean"}, "[8]": {"details": "for Lambda z: harmonic mean; for Tmax: median; for λz: geometric mean (CV %)"}, "[9]": {"details": "im, 0.4 mg, One Injection 0.4 mg IM"}, "[10]": {"details": "other: intranasal (IN), 2 mg, One Spray 2% (w/v) IN"}, "[11]": {"details": "other: intranasal (IN), 4 mg, One Spray 4% (w/v) IN"}, "[12]": {"details": "other: intranasal, 2 mg, One Spray 2% (w/v) IN"}, "[13]": {"details": "other: intranasal, 4 mg, One Spray 4% (w/v) IN"}, "[14]": {"details": "other: intranasal, 4 mg, Two Sprays 2% (w/v) IN"}, "[15]": {"details": "other: intranasal, 8 mg, Two Sprays 4% (w/v) IN"}}, "note": "Where two headings read alike, the source gives them in different places.", "data": [{"smiles": "C=CCN1CC[C@]23c4c5ccc(O)c4O[C@H]2C(=O)CC[C@@]3(O)[C@H]1C5", "note": "[naloxone, 17-allyl-4,5α-epoxy-3,14-dihydroxymorphinan-6-one]", "values": [{"measurement": "AUC(0-t)", "setting": "[1]; [9]", "result": 1.72, "unit": "ng·h/mL"}, {"measurement": "AUC(0-inf)", "setting": "[1]; [9]", "result": 1.76, "unit": "ng·h/mL"}, {"measurement": "Cmax", "setting": "[1]; [9]", "result": 0.877, "unit": "ng/mL"}, {"measurement": "Tmax", "setting": "[1]; [9]", "result": 22.8, "unit": "min"}, {"measurement": "AUC(0-t)", "setting": "[1]; [10]", "result": 4.51, "unit": "ng·h/mL"}, {"measurement": "AUC(0-inf)", "setting": "[1]; [10]", "result": 4.56, "unit": "ng·h/mL"}, {"measurement": "AUC(0-t)", "setting": "[1]; [11]", "result": 7.87, "unit": "ng·h/mL"}, {"measurement": "AUC(0-inf)", "setting": "[1]; [11]", "result": 7.95, "unit": "ng·h/mL"}, {"measurement": "AUC(0-inf)", "setting": "[1]; other: intranasal (IN), 8 mg, Two Sprays 4% (w/v) IN", "result": 15.5, "unit": "ng·h/mL"}, {"measurement": "Cmax", "setting": "[1]; [12]", "result": 2.92, "unit": "ng/mL"}, {"measurement": "Tmax", "setting": "[1]; [12]", "result": 19.8, "unit": "min"}, {"measurement": "Cmax", "setting": "[1]; [13]", "result": 4.83, "unit": "ng/mL"}, {"measurement": "Cmax", "setting": "[1]; [14]", "result": 6.2, "unit": "ng/mL"}, {"measurement": "Tmax", "setting": "[1]; [13]", "result": 30, "unit": "min"}, {"measurement": "Tmax", "setting": "[1]; [14]", "result": 19.8, "unit": "min"}, {"measurement": "Cmax", "setting": "[1]; [15]", "result": 9.7, "unit": "ng/mL"}, {"measurement": "Tmax", "setting": "[1]; [15]", "result": 19.8, "unit": "min"}, {"measurement": "LD50 (95% CL)", "setting": "[2]", "result": "260 (228-296) mg/kg"}, {"measurement": "LD50", "setting": "[3]", "result": "150 ± 5", "unit": "mg/kg"}, {"measurement": "adverse events: Dizziness", "setting": "[4]; 0.4 mg Intramuscular Dose", "result": 1}, {"measurement": "adverse events: Headache", "setting": "[4]; 0.4 mg Intramuscular Dose", "result": 1}, {"measurement": "adverse events: Nausea", "setting": "[4]; 0.4 mg Intramuscular Dose", "result": 1}, {"measurement": "Events related to nasal irritation: Edema", "setting": "[4]; 2 mg (2% w/v, one spray)", "result": 2}, {"measurement": "Events related to nasal irritation: Erythema", "setting": "[4]; 2 mg (2% w/v, one spray)", "result": 4}, {"measurement": "Events related to nasal irritation: Other", "setting": "[4]; 2 mg (2% w/v, one spray)", "result": 1}, {"measurement": "Events related to nasal irritation: Total", "setting": "[4]; 2 mg (2% w/v, one spray)", "result": 7}, {"measurement": "adverse events: Nasal Pain", "setting": "[4]; 2 mg (2% w/v, one spray)", "result": 1}, {"measurement": "Events related to nasal irritation: Edema", "setting": "[4]; 4 mg (2% w/v, two sprays)", "result": 0}, {"measurement": "Events related to nasal irritation: Erythema", "setting": "[4]; 4 mg (2% w/v, two sprays)", "result": 1}, {"measurement": "Events related to nasal irritation: Other", "setting": "[4]; 4 mg (2% w/v, two sprays)", "result": 0}, {"measurement": "Events related to nasal irritation: Total", "setting": "[4]; 4 mg (2% w/v, two sprays)", "result": 1}, {"measurement": "Events related to nasal irritation: Edema", "setting": "[4]; 4 mg (4% w/v, one spray)", "result": 2}, {"measurement": "Events related to nasal irritation: Erythema", "setting": "[4]; 4 mg (4% w/v, one spray)", "result": 1}, {"measurement": "Events related to nasal irritation: Other", "setting": "[4]; 4 mg (4% w/v, one spray)", "result": 0}, {"measurement": "Events related to nasal irritation: Total", "setting": "[4]; 4 mg (4% w/v, one spray)", "result": 3}, {"measurement": "Events related to nasal irritation: Edema", "setting": "[4]; 8 mg (4% w/v, two sprays)", "result": 1}, {"measurement": "Events related to nasal irritation: Erythema", "setting": "[4]; 8 mg (4% w/v, two sprays)", "result": 0}, {"measurement": "Events related to nasal irritation: Other", "setting": "[4]; 8 mg (4% w/v, two sprays)", "result": 0}, {"measurement": "Events related to nasal irritation: Total", "setting": "[4]; 8 mg (4% w/v, two sprays)", "result": 1}, {"measurement": "adverse events: Headache", "setting": "[4]; 8 mg (4% w/v, two sprays)", "result": 1}, {"measurement": "relation of nasal irritation to dose", "setting": "[4]; IN 2 to 8 mg", "result": "did not appear to be positively related to the dose"}, {"measurement": "QTcF prolongation", "setting": "[4]; Study 2", "result": "no evidence of QTcF prolongation"}, {"measurement": "vital signs, ECG, and clinical laboratory parameters", "setting": "[4]; after naloxone administration, Study 2", "result": "did not reveal any clinically noteworthy changes"}, {"measurement": "pharyngeal pain", "setting": "[5]; 2 mg IN dose", "result": "One subject experienced mild transient (over 3 min) pharyngeal pain"}, {"measurement": "nasal irritation (erythema, edema, erosion) in the nasal cavity", "setting": "[5]; IN 2 and 4 mg to both nostrils", "result": "No erythema, edema, erosion, or other sign was observed"}, {"measurement": "QTcF prolongation", "setting": "[5]; Study 1", "result": "no evidence of QTcF prolongation"}, {"measurement": "vital signs, ECG, and clinical laboratory parameters", "setting": "[5]; after naloxone administration, Study 1", "result": "did not reveal any clinically noteworthy changes"}, {"measurement": "LD50", "setting": "[6]", "result": "109 ± 4", "unit": "mg/kg"}, {"measurement": "Cmax/D", "setting": "[7]; 0.4 mg IM", "result": 0.755, "unit": "ng/mL"}, {"measurement": "λz", "setting": "[7]; 0.4 mg IM", "result": 0.593, "unit": "h⁻¹"}, {"measurement": "Frel", "setting": "[7]; 2 mg IN vs IM", "result": 0.571}, {"measurement": "Cmax/D", "setting": "[7]; 2 mg IN", "result": 0.510, "unit": "ng/mL"}, {"measurement": "λz", "setting": "[7]; 2 mg IN", "result": 0.588, "unit": "h⁻¹"}, {"measurement": "Frel", "setting": "[7]; 4 mg IN vs IM", "result": 0.475}, {"measurement": "Cmax/D", "setting": "[7]; 4 mg IN", "result": 0.466, "unit": "ng/mL"}, {"measurement": "λz", "setting": "[7]; 4 mg IN", "result": 8.0, "unit": "h⁻¹"}, {"measurement": "Lambda z", "setting": "[8]; 0.4 mg IM, Female", "result": 0.6140, "unit": "h⁻¹"}, {"measurement": "Lambda z", "setting": "[8]; 0.4 mg IM, Male", "result": 0.5152, "unit": "h⁻¹"}, {"measurement": "Tmax", "setting": "[8]; 0.4 mg IM, Male", "result": 30, "unit": "min"}, {"measurement": "Lambda z", "setting": "[8]; 0.4 mg IM", "result": 0.5534, "unit": "h⁻¹"}, {"measurement": "Lambda z", "setting": "[8]; One 2% (w/v) IN, Female", "result": 0.3978, "unit": "h⁻¹"}, {"measurement": "Lambda z", "setting": "[8]; One 2% (w/v) IN, Male", "result": 0.3492, "unit": "h⁻¹"}, {"measurement": "Lambda z", "setting": "[8]; One 4% (w/v) IN, Female", "result": 0.2946, "unit": "h⁻¹"}, {"measurement": "Tmax", "setting": "[8]; One 4% (w/v) IN, Female", "result": 30, "unit": "min"}, {"measurement": "Lambda z", "setting": "[8]; One 4% (w/v) IN, Male", "result": 0.3386, "unit": "h⁻¹"}, {"measurement": "Tmax", "setting": "[8]; One 4% (w/v) IN, Male", "result": 30, "unit": "min"}, {"measurement": "λz", "setting": "[8]; One Injection 0.4 mg IM", "result": "0.557 (25.9) 1/h"}, {"measurement": "λz", "setting": "[8]; One Spray 2% (w/v) IN", "result": "0.382 (34.9) 1/h"}, {"measurement": "λz", "setting": "[8]; One Spray 4% (w/v) IN", "result": "0.334 (29.5) 1/h"}, {"measurement": "Lambda z", "setting": "[8]; Two 2% (w/v) IN, Female", "result": 0.2796, "unit": "h⁻¹"}, {"measurement": "Lambda z", "setting": "[8]; Two 2% (w/v) IN, Male", "result": 0.3122, "unit": "h⁻¹"}, {"measurement": "Lambda z", "setting": "[8]; Two 4% (w/v) IN, Female", "result": 0.2994, "unit": "h⁻¹"}, {"measurement": "Lambda z", "setting": "[8]; Two 4% (w/v) IN, Male", "result": 0.3407, "unit": "h⁻¹"}, {"measurement": "λz", "setting": "[8]; Two Sprays 2% (w/v) IN", "result": "0.310 (34.5) 1/h"}, {"measurement": "λz", "setting": "[8]; Two Sprays 4% (w/v) IN", "result": "0.330 (32.4) 1/h"}, {"measurement": "Lambda z", "setting": "[8]; one spray 2 mg 2% (w/v) IN", "result": 0.3685, "unit": "h⁻¹"}, {"measurement": "Lambda z", "setting": "[8]; two sprays 4 mg 2% (w/v) IN", "result": 0.2973, "unit": "h⁻¹"}, {"measurement": "Lambda z", "setting": "[8]; two sprays 8 mg 4% (w/v) IN", "result": 0.3217, "unit": "h⁻¹"}]}]}
